# Experiments:
# Assay type in all cases: in vivo
# db/db diabetic mice = experiment: Blood glucose after glucose challenge in db/db diabetic mice (Example 4); conditions: 2-hour-fasted db/db mice; 20% glucose (200 μl) i.p. with simultaneous s.c. GLP-1 4 μg, E4m 0.2 μg or Humalog 4 μg; 0-180 minutes; FIG. 3
# Description: In order to extend the experimental results obtained in Example 3 with non-diabetic mice, experiments were also conducted to determine the effect on blood glucose levels of db/db diabetic mice of the exendin-4 (Leu14, Lys20, Arg40) peptide derivative relative to GLP-1 and Rapid Insulin.
# Specifically, 2-hour-fasted db/db mice weighing 50 g were injected with a 20% glucose solution (200 μl) intra-peritoneally and simultaneously subcutaneously injected with either a saline control, GLP-1 (4 μg), exendin-4 (Leu14, Lys20, Arg40) (“E4m”)(0.2 μg), or the commercially available insulin, Humalog® (Eli Lilly and Company) (4 μg). Blood glucose levels were determined using standard glucose determination kits at 0, 30, 60, 120, and 180 minutes post-injection, and hypoglycemia (%) was calculated relative to the baseline (t=0) blood glucose level of animals receiving saline control.
# C57 BL/6J mice = experiment: Long-term blood glucose buffering with second glucose challenge at 240 minutes in C57 BL/6J mice (Example 5); conditions: FIG. 4; for effect on rise in blood glucose levels after the initial glucose injection: overnight-fasted mice, 20% glucose (200 μl) i.p. with simultaneous s.c. GLP-1 1 μg or E4m 0.2 μg; for activity on blood glucose after second glucose challenge at 240 minutes after the first injection: peptide given only at first injection (GLP-1 1 μg, E4m 0.2 μg), glucose measured at 240, 270, 300 minutes
# Description: In order to determine the long-term ability of the exendin-4 derivative exendin-4 (Leu14, Lys20, Arg40) to buffer blood glucose levels, experiments were performed in which blood glucose levels in the presence of this exendin-4 derivative were determined at various times after an initial glucose challenge at 0 minutes and then a second glucose challenge at 240 minutes.
# Specifically, overnight-fasted C57 BL/6J mice weighing 20 g were injected with a 20% glucose solution (200 μl) intra-peritoneally and simultaneously subcutaneously injected with either a saline control, GLP-1 (1 μg), or exendin-4 (Leu14, Lys20, Arg40) (0.2 μg). Then, at 240 minutes after the initial injection a second injection of 20% glucose solution (200 μl) intra-peritoneally was performed. Blood glucose levels were determined using standard glucose determination kits at 0, 30, 60, 240, 270, and 300 minutes after the first injection.
# [1] = test system: non-diabetic C57 BL/6J mice; experiment: Blood glucose after glucose challenge in non-diabetic C57 BL/6J mice (Example 3); conditions: overnight-fasted mice; 20% glucose (200 μl) i.p. with simultaneous s.c. peptide: GLP-1 1 μg, exendin-4 0.2 μg, derivative 0.2 μg; 0, 30, 60, 120 minutes; FIG. 2
# Description: Experiments were conducted to determine the effect on the blood glucose levels of non-diabetic C57 BL/6J mice of the exendin-4 (Leu14, Lys20, Arg40) peptide derivative relative to GLP-1 and the wild-type exendin-4 peptide. Overnight-fasted C57 BL/6J mice weighing 20 g were injected with a 20% glucose solution (200 μl) intra-peritoneally and simultaneously subcutaneously injected with either a saline control, GLP-1 (1 μg), exendin-4 (0.2 μg), or exendin-4 (Leu14, Lys20, Arg40) (0.2 μg). Blood glucose levels were determined using standard glucose determination kits at 0, 30, 60, and 120 minutes post-injection.
# Healthy C57 BL mice = experiment: C-peptide secretion in healthy C57 BL mice, C-peptide radioimmunoassay (Example 8); conditions: abdominal injection of 5 μg in 200 μl saline, data not shown
# Description: In order to further investigate the insulinotropic properties of the exendin-4 derivative exendin-4 (Lys20, Arg40), experiments were conducted to measure the effect of administration of this compound on the production of C-peptide, which, as discussed previously, is produced in equal amounts as insulin by the cleavage of proinsulin. Healthy C57 BL mice were provided by Shanghai Laboratory Animal Center of Chinese Academy of Sciences. 40% glucose solution, 0.9% sodium chloride solution and exendin-4 (Lys20, Arg40) were used in the experiments. Insulin radioimmunoassay kits and C-peptide radioimmunoassay kits were purchased from Shanghai Institute of Biological Products Ministry of Health.
# Healthy C57 BL mice were divided into two groups. 50 μl of blood sample was taken from plexus venosus of the eye using a scaled capillary, the inner wall of which was rinsed with 1 mg/mL heparin and was air-dried beforehand. Mice in two groups were abdominally injected with 200 μl normal saline alone, or with a similar amount of saline containing 5 μg of exendin-4 (Lys20, Arg40), respectively at t=0. […] The C-peptide concentration in each sample was determined by following the method described by the radioimmunoassay kit, and the stimulating effect of exendin-4 (Lys20, Arg40) on C-peptide secretion was determined.
# NOD mice [2] = experiment: Insulin secretion in NOD mice, insulin radioimmunoassay (Example 7); conditions: abdominal injection of 5 μg in 200 μl saline, 5, 10, 20, 30 min, data not shown
# Description: In order to determine whether the ability of the exendin-4 derivative exendin-4 (Lys20, Arg40) to decrease blood glucose in NOD mice is an insulinotropic effect, experiments were conducted to measure the effect of administration of this compound on insulin levels. In these experiments, NOD mice were provided by Shanghai Laboratory Animal Center of Chinese Academy of Sciences. 40% glucose solution, 0.9% sodium chloride solution, and exendin-4 (Lys20, Arg40) were used in the experiment. Insulin radioimmunoassay kits were purchased from Shanghai Institute of Biological Products Ministry of Health.
# NOD mice were divided into two groups. 50 μl of blood sample was taken from the plexus venosus of the eye using a scaled capillary, the inner wall of which was rinsed with 1 mg/mL heparin and was air-dried beforehand. Mice in the two groups were abdominally injected with either 200 μl normal saline alone, or with a similar amount of saline containing 5 μg exendin-4 (Lys20, Arg40), respectively at t=0. Different blood samples were taken as described above at 5 min, 10 min, 20 min and 30 min. […] Insulin concentrations of different samples were determined by following the methods described in the radioimmunoassay kit, and the stimulating effect of exendin-4 (Lys20, Arg40) on insulin secretion was determined.
# NOD mice [3] = experiment: Blood glucose after glucose challenge in NOD mice (Example 6); conditions: overnight-fasted NOD mice
# Description: Experiments to determine the effects on blood glucose levels of the exendin-4 derivative exendin-4 (Lys20, Arg40) were conducted in NOD mice provided by the Shanghai Laboratory Animal Center of Chinese Academy of Sciences. 0.9% sodium chloride solution and exendin-4 (Lys20, Arg40) were used in the assay. Plasma glucose testing kits were purchased from Shanghai Institute of Biological Products Ministry of Health.
# Overnight-fasted NOD mice were divided into two groups. Mice in the first group were abdominally injected with 200 μl of a solution containing 40% glucose and 1 μg of exendin-4 (Lys20, Arg40). Mice in the second (control) group […] with a glucose solution.
# 30 μl of blood sample was taken from retro-orbital zeinous sinus immediately using a scaled capillary which was treated beforehand with heparin, placed into 300 μl of normal saline and mixed with the saline. Erythrocytes were removed by centrifugation at 3,000 rpm, while blood serum was kept for glucose determination. Different blood samples were taken as described above at 30 min, 60 min and 120 min, and blood serum was separated. Glucose concentrations of three plasma samples were determined according to the method described in the testing kits, and the decreasing effect of exendin-4 (Lys20, Arg40) on blood glucose concentration was determined.
Substance,effect on blood glucose levels after glucose challenge (db/db diabetic mice),effect on rise in blood glucose levels after the initial glucose injection (C57 BL/6J mice),activity on blood glucose after second glucose challenge at 240 minutes after the first injection (C57 BL/6J mice),effect on blood glucose levels after glucose challenge [1],stimulating effect on C-peptide secretion (Healthy C57 BL mice),stimulating effect on insulin secretion (NOD mice [2]),"time after administration up to which dramatic fluctuations in glucose concentration are prevented (NOD mice [3]; 200 μl 40% glucose with 1 μg peptide, abdominal injection)","blood glucose concentration after glucose challenge (NOD mice [3]; abdominal injection of 200 μl 40% glucose with 1 μg peptide, 30, 60, 120 min, data not shown)"
"Glucagon-like peptide-1 (HAEGTFTSDVSSYLEGQAAKEFIAWLVKGR; listed as Homo sapiens) [GLP-1, peptide hormone secreted by intestinal cells that enhances insulin secretion, reference compound]",resulted in the buffering of changes in blood glucose levels,drastically reduced,GLP-1 activity is essentially abolished,acted to buffer changes in blood glucose levels,,,,
"Humalog®: commercially available insulin, Humalog® (Eli Lilly and Company)",resulted in the buffering of changes in blood glucose levels,,,,,,,
"exendin-4 (Leu14, Lys20, Arg40)",resulted in the buffering of changes in blood glucose levels,essentially eliminated,activity at times of 240 or more minutes after first injection is preserved,produced a response profile virtually identical to that seen with the wild-type exendin-4 sequence,,,,
"exendin-4 (Lys20, Arg40)",,,,,significantly stimulates the secretion of C-peptide relative to the control,significantly stimulates insulin secretion,at least 2 hours,never showed a notable increase in blood glucose
exendin-4 [wild-type exendin-4],,,,acted to buffer changes in blood glucose levels,,,,
